Starred links: 1 amine or outer side, 2 acyl side, 3 side chain; linkers in the order of their positions; H or OH if unused. Non-standard residues stand in square brackets, D forms with d. Residues, ends and D or L forms follow the SMILES beside them. Groups on a side chain read outwards from the residue. *: point of attachment. C18 diacid = O=C(O)CCCCCCCCCCCCCCCCC(=O)*; γGlu = O=C(O)[C@H](CCC(=O)[*:2])N[*:1]; αMeF = C[C@](N)(Cc1ccccc1)C(=O)O; AEEA = NCCOCCOCC(=O)O; Aib = CC(C)(N)C(=O)O
What was measured:
[1] = target: human GLP-1 receptor (hGLP-1R) (Homo sapiens, UniProt P43220); test: cAMP production (HTRF) in CHO cells expressing hGLP-1R; format: cell-based; set-up: expressed in transfected cells; settings: for EC50: Table 6, peptides modified at position 17, cAMP in CHO hGLP-1R cells, geometric mean, read-out: hGLP-1R EC50; for % Relative Potency Ratio: Table 6, % GLP-1R activity relative to GLP-1 / % GlucR activity relative to glucagon
In short: (§1)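 Potency values represent EC50 from 4-parameter logistic curves of HTRF % Delta F signal. Receptor-expressing CHO cells (hGCGR 2×10^5 cells/mL, hGLP-1R 1×10^5 cells/mL) were exposed for 30 min at room temperature before two-step cAMP detection.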

[2] = target: human glucagon receptor (hGCGR) (Homo sapiens, UniProt P47871); test: cAMP production (HTRF) in CHO cells expressing hGCGR; format: cell-based; set-up: expressed in transfected cells; settings: Table 6, peptides modified at position 17; cAMP in CHO hGCGR cells; geometric mean; read-out: hGluc-R EC50
In short: as §1

Chain of human glucagon receptor (hGCGR) (P47871 26-477): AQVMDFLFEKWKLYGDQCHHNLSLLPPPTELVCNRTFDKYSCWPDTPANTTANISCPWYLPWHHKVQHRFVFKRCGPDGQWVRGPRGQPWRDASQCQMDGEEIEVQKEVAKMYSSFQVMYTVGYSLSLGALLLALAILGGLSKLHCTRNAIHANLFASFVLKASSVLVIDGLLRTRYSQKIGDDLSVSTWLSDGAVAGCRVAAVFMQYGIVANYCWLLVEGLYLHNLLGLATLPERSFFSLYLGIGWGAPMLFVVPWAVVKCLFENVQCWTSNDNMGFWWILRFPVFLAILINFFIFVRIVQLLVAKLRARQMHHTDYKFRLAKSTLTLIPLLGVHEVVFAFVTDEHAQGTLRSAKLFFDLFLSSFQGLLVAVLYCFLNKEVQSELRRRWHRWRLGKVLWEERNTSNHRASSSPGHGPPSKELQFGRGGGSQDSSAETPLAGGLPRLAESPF
Chain of human GLP-1 receptor (hGLP-1R) (P43220 24-463): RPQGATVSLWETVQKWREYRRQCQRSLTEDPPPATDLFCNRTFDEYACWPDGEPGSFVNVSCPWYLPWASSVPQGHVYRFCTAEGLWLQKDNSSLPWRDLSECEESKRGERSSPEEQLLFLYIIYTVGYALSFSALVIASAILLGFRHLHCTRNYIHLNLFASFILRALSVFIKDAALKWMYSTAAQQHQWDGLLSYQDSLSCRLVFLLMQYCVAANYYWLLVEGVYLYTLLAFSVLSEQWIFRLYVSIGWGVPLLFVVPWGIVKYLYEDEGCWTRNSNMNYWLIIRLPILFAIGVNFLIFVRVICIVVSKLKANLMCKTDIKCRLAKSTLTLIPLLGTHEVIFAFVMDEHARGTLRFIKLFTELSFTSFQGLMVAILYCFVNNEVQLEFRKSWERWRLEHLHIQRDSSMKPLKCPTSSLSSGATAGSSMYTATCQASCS

SMILES	EC50 [1]	% Relative Potency Ratio [1]	EC50 [2]
CC(C)C[C@H](NC(=O)[C@H](Cc1c[nH]c2ccccc12)NC(=O)[C@H](CCCNC(=N)N)NC(=O)[C@@H](NC(=O)[C@H](Cc1ccccc1)NC(=O)[C@H](CC(=O)O)NC(=O)[C@H](CCC(N)=O)NC(=O)[C@H](C)NC(=O)[C@H](CCCNC(=N)N)NC(=O)[C@H](CCCCNC(=O)COCCOCCNC(=O)COCCOCCNC(=O)CC[C@H](NC(=O)CCCCCCCCCCCCCCCCC(=O)O)C(=O)O)NC(=O)[C@H](CCCCN)NC(=O)[C@H](CC(=O)O)NC(=O)[C@H](CC(C)C)NC(=O)[C@](C)(Cc1ccccc1)NC(=O)[C@H](CCCCN)NC(=O)[C@H](CO)NC(=O)[C@@H](NC(=O)[C@H](CC(=O)O)NC(=O)[C@H](CO)NC(=O)[C@@H](NC(=O)[C@H](Cc1ccccc1)NC(=O)[C@@H](NC(=O)CNC(=O)[C@H](CCC(N)=O)NC(=O)C(C)(C)NC(=O)[C@@H](N)Cc1c[nH]cn1)[C@@H](C)O)[C@@H](C)O)C(C)C)C(C)C)C(=O)N[C@@H](CC(C)C)C(=O)NC(C)(C)C(=O)N[C@H](C(=O)N[C@@H](CCC(=O)O)C(=O)O)[C@@H](C)O [Peptide 178]	0.0518 nM	4.0	0.104 nM
CC(C)C[C@H](NC(=O)[C@H](CC(C)C)NC(=O)[C@H](Cc1c[nH]c2ccccc12)NC(=O)[C@H](CCCNC(=N)N)NC(=O)[C@@H](NC(=O)[C@H](Cc1ccccc1)NC(=O)[C@H](CC(=O)O)NC(=O)[C@H](CCC(N)=O)NC(=O)[C@H](C)NC(=O)[C@H](CCCNC(=N)N)NC(=O)[C@H](CCCCNC(=O)COCCOCCNC(=O)COCCOCCNC(=O)CC[C@H](NC(=O)CCCCCCCCCCCCCCCCC(=O)O)C(=O)O)NC(=O)[C@H](CO)NC(=O)[C@H](CC(=O)O)NC(=O)[C@H](CC(C)C)NC(=O)[C@](C)(Cc1ccccc1)NC(=O)[C@H](CCCCN)NC(=O)[C@H](CO)NC(=O)[C@@H](NC(=O)[C@H](CC(=O)O)NC(=O)[C@H](CO)NC(=O)[C@@H](NC(=O)[C@H](Cc1ccccc1)NC(=O)[C@@H](NC(=O)CNC(=O)[C@H](CCC(N)=O)NC(=O)C(C)(C)NC(=O)[C@@H](N)Cc1c[nH]cn1)[C@@H](C)O)[C@@H](C)O)C(C)C)C(C)C)C(=O)N[C@@H](CCC(=O)O)C(=O)N[C@@H](C)C(=O)NCC(=O)O [Peptide 179] (H-H[Aib]QGTFTSDVSK[αMeF]LDSK([AEEA-AEEA-γGlu-C18 diacid])RAQDFVRWLLEAG-OH; N-terminus assumed)	0.131 nM	3.1	0.203 nM
CC(C)C[C@H](NC(=O)[C@H](Cc1c[nH]c2ccccc12)NC(=O)[C@H](CCCNC(=N)N)NC(=O)[C@@H](NC(=O)[C@H](Cc1ccccc1)NC(=O)[C@H](CC(=O)O)NC(=O)[C@H](CCC(N)=O)NC(=O)[C@H](C)NC(=O)[C@H](CCCNC(=N)N)NC(=O)[C@H](CCCCNC(=O)COCCOCCNC(=O)COCCOCCNC(=O)CCCCCCCCCCCCCCCCC(=O)O)NC(=O)[C@H](CO)NC(=O)[C@H](CC(=O)O)NC(=O)[C@H](CC(C)C)NC(=O)[C@](C)(Cc1ccccc1)NC(=O)[C@H](CCCCN)NC(=O)[C@H](CO)NC(=O)[C@@H](NC(=O)[C@H](CC(=O)O)NC(=O)[C@H](CO)NC(=O)[C@@H](NC(=O)[C@H](Cc1ccccc1)NC(=O)[C@@H](NC(=O)CNC(=O)[C@H](CCC(N)=O)NC(=O)C(C)(C)NC(=O)[C@@H](N)Cc1c[nH]cn1)[C@@H](C)O)[C@@H](C)O)C(C)C)C(C)C)C(=O)N[C@@H](CC(C)C)C(=O)N[C@@H](CCC(=O)O)C(=O)NC(C)(C)C(=O)NCC(=O)O [Peptide 181] (H-H[Aib]QGTFTSDVSK[αMeF]LDSK([AEEA-AEEA-C18 diacid])RAQDFVRWLLE[Aib]G-OH; N-terminus assumed)	0.056 nM	1.2	0.0334 nM
CC(C)C[C@H](NC(=O)[C@H](Cc1c[nH]c2ccccc12)NC(=O)[C@H](CCCNC(=N)N)NC(=O)[C@@H](NC(=O)[C@H](Cc1ccccc1)NC(=O)[C@H](CC(=O)O)NC(=O)[C@H](CCC(N)=O)NC(=O)[C@H](C)NC(=O)[C@H](CCCNC(=N)N)NC(=O)[C@H](CCCCNC(=O)COCCOCCNC(=O)COCCOCCNC(=O)CC[C@H](NC(=O)CCCCCCCCCCCCCCCCC(=O)O)C(=O)O)NC(=O)[C@H](CO)NC(=O)[C@H](CC(=O)O)NC(=O)[C@H](CC(C)C)NC(=O)[C@](C)(Cc1ccccc1)NC(=O)[C@H](CCCCN)NC(=O)[C@H](CO)NC(=O)[C@@H](NC(=O)[C@H](CC(=O)O)NC(=O)[C@H](CO)NC(=O)[C@@H](NC(=O)[C@H](Cc1ccccc1)NC(=O)[C@@H](NC(=O)CNC(=O)[C@H](CCC(N)=O)NC(=O)C(C)(C)NC(=O)[C@@H](N)Cc1c[nH]cn1)[C@@H](C)O)[C@@H](C)O)C(C)C)C(C)C)C(=O)N[C@@H](CC(C)C)C(=O)N[C@@H](CCC(=O)O)C(=O)NC(C)(C)C(=O)N[C@@H](CCCCN)C(=O)O [Peptide 183]	0.0237 nM	6.8	0.0814 nM
CC(C)C[C@H](NC(=O)[C@H](CC(C)C)NC(=O)[C@H](Cc1c[nH]c2ccccc12)NC(=O)[C@H](CCCNC(=N)N)NC(=O)[C@@H](NC(=O)[C@H](Cc1ccccc1)NC(=O)[C@H](CC(=O)O)NC(=O)[C@H](CCC(N)=O)NC(=O)[C@H](C)NC(=O)[C@H](CCCNC(=N)N)NC(=O)[C@H](CCCCNC(=O)COCCOCCNC(=O)COCCOCCNC(=O)CCCCCCCCCCCCCCCCC(=O)O)NC(=O)[C@H](CCCCN)NC(=O)[C@H](CC(=O)O)NC(=O)[C@H](CC(C)C)NC(=O)[C@](C)(Cc1ccccc1)NC(=O)[C@H](CCCCN)NC(=O)[C@H](CO)NC(=O)[C@@H](NC(=O)[C@H](CC(=O)O)NC(=O)[C@H](CO)NC(=O)[C@@H](NC(=O)[C@H](Cc1ccccc1)NC(=O)[C@@H](NC(=O)CNC(=O)[C@H](CCC(N)=O)NC(=O)C(C)(C)NC(=O)[C@@H](N)Cc1c[nH]cn1)[C@@H](C)O)[C@@H](C)O)C(C)C)C(C)C)C(=O)N[C@@H](C)C(=O)NC(C)(C)C(=O)N[C@@H](CCCCN)C(=O)O [Peptide 184] (H-H[Aib]QGTFTSDVSK[αMeF]LDKK([AEEA-AEEA-C18 diacid])RAQDFVRWLLA[Aib]K-OH; N-terminus assumed)	0.022 nM	2.7	0.0296 nM

Other lines, results leading:

EC50 [1]	% Relative Potency Ratio [1]	EC50 [2]	SMILES
0.0244 nM	5.8	0.0717 nM	CC(C)C[C@H](NC(=O)[C@H](CC(C)C)NC(=O)[C@H](Cc1c[nH]c2ccccc12)NC(=O)[C@H](CCCNC(=N)N)NC(=O)[C@@H](NC(=O)[C@H](Cc1ccccc1)NC(=O)[C@H](CC(=O)O)NC(=O)[C@H](CCC(N)=O)NC(=O)[C@H](C)NC(=O)[C@H](CCCNC(=N)N)NC(=O)[C@H](CCCCNC(=O)COCCOCCNC(=O)COCCOCCNC(=O)CC[C@H](NC(=O)CCCCCCCCCCCCCCCCC(=O)O)C(=O)O)NC(=O)[C@H](CO)NC(=O)[C@H](CC(=O)O)NC(=O)[C@H](CC(C)C)NC(=O)[C@](C)(Cc1ccccc1)NC(=O)[C@H](CCCCN)NC(=O)[C@H](CO)NC(=O)[C@@H](NC(=O)[C@H](CC(=O)O)NC(=O)[C@H](CO)NC(=O)[C@@H](NC(=O)[C@H](Cc1ccccc1)NC(=O)[C@@H](NC(=O)CNC(=O)[C@H](CCC(N)=O)NC(=O)C(C)(C)NC(=O)[C@@H](N)Cc1c[nH]cn1)[C@@H](C)O)[C@@H](C)O)C(C)C)C(C)C)C(=O)N[C@@H](C)C(=O)NC(C)(C)C(=O)NCC(=O)O [Peptide 180] (H-H[Aib]QGTFTSDVSK[αMeF]LDSK([AEEA-AEEA-γGlu-C18 diacid])RAQDFVRWLLA[Aib]G-OH; N-terminus assumed)
0.0291 nM	1.5	0.0226 nM	CC(C)C[C@H](NC(=O)[C@H](Cc1c[nH]c2ccccc12)NC(=O)[C@H](CCCNC(=N)N)NC(=O)[C@@H](NC(=O)[C@H](Cc1ccccc1)NC(=O)[C@H](CC(=O)O)NC(=O)[C@H](CCC(N)=O)NC(=O)[C@H](C)NC(=O)[C@H](CCCNC(=N)N)NC(=O)[C@H](CCCCNC(=O)COCCOCCNC(=O)COCCOCCNC(=O)CC[C@H](NC(=O)CCCCCCCCCCCCCCCCC(=O)O)C(=O)O)NC(=O)[C@H](CCCCN)NC(=O)[C@H](CC(=O)O)NC(=O)[C@H](CC(C)C)NC(=O)[C@](C)(Cc1ccccc1)NC(=O)[C@H](CCCCN)NC(=O)[C@H](CO)NC(=O)[C@@H](NC(=O)[C@H](CC(=O)O)NC(=O)[C@H](CO)NC(=O)[C@@H](NC(=O)[C@H](Cc1ccccc1)NC(=O)[C@@H](NC(=O)CNC(=O)[C@H](CCC(N)=O)NC(=O)C(C)(C)NC(=O)[C@@H](N)Cc1c[nH]cn1)[C@@H](C)O)[C@@H](C)O)C(C)C)C(C)C)C(=O)N[C@@H](CC(C)C)C(=O)N[C@@H](CCC(=O)O)C(=O)NC(C)(C)C(=O)NCC(=O)O [Peptide 182] (H-H[Aib]QGTFTSDVSK[αMeF]LDKK([AEEA-AEEA-γGlu-C18 diacid])RAQDFVRWLLE[Aib]G-OH)
0.0441 nM	10.3	0.23 nM	CC(C)C[C@H](NC(=O)[C@H](Cc1c[nH]c2ccccc12)NC(=O)[C@H](CCCNC(=N)N)NC(=O)[C@@H](NC(=O)[C@H](Cc1ccccc1)NC(=O)[C@H](CC(=O)O)NC(=O)[C@H](CCC(N)=O)NC(=O)[C@H](C)NC(=O)[C@H](CCCNC(=N)N)NC(=O)[C@H](CCCCNC(=O)COCCOCCNC(=O)COCCOCCNC(=O)CC[C@H](NC(=O)CCCCCCCCCCCCCCCCC(=O)O)C(=O)O)NC(=O)[C@@H](NC(=O)[C@H](CC(=O)O)NC(=O)[C@H](CC(C)C)NC(=O)[C@](C)(Cc1ccccc1)NC(=O)[C@H](CCCCN)NC(=O)[C@H](CO)NC(=O)[C@@H](NC(=O)[C@H](CC(=O)O)NC(=O)[C@H](CO)NC(=O)[C@@H](NC(=O)[C@H](Cc1ccccc1)NC(=O)[C@@H](NC(=O)CNC(=O)[C@H](CCC(N)=O)NC(=O)C(C)(C)NC(=O)[C@@H](N)Cc1c[nH]cn1)[C@@H](C)O)[C@@H](C)O)C(C)C)[C@@H](C)O)C(C)C)C(=O)N[C@@H](CC(C)C)C(=O)N[C@@H](CCC(=O)O)C(=O)NC(C)(C)C(=O)NCC(N)=O [Peptide 185] (H-H[Aib]QGTFTSDVSK[αMeF]LDTK([AEEA-AEEA-γGlu-C18 diacid])RAQDFVRWLLE[Aib]G-NH2; N-terminus assumed)

— US20250353891A1 (MEDIMMUNE LIMITED, priority 2022, published 2025)
